The values that follow are results of earlier work, collected in patent US7825087B2 (Elan Pharma International Limited, priority 2005, dated 2010).

The subject of one series is bone marrow. The following applies: animal models or man.
The conditions of series [1]: distribution in blood, concentration dependent.

Consider “[R—[R*,R*-(E)]]-cyclic (L-alanyl-D-alanyl-N-methyl-L-leucyl-N-methyl-L-leucyl-N-methyl-L-valyl-3-hydroxy-N,4-dimethyl-L-2-amino-6-octenoyl-L-(alpha)-amino-butyryl-N-methylglycyl-N-methyl-L-leucyl-L-valyl-N-methyl-L-leucyl) [cyclosporine]”, for which the bone marrow suppression result in the series with bone marrow is given as “does not cause bone marrow suppression”. Also, in series [1], the fraction in erythrocytes is 41%-58%, the fraction in granulocytes is 5%-12% and the fraction in lymphocytes was 4%-9%.
